Experimental data published in article PMC10577695, “A Novel 7H-[1,2,4]Triazolo[3,4-b]thiadiazine-based Cystic Fibrosis Transmembrane Conductance Regulator Potentiator Directed toward Treatment of Cystic Fibrosis” (ACS Medicinal Chemistry Letters, 2023).

Legend:
Assay in all cases: CFTR current in FRT cells expressing G551D CFTR, […] compound with VX-770
Format in all cases: cell-based
[1] = biological target: T1, cystic fibrosis transmembrane conductance regulator (CFTR) (Homo sapiens, UniProt P13569, G551D)
[2] = biological target: T1, cystic fibrosis transmembrane conductance regulator (CFTR); remark: listed apart in the source
[3] = biological target: T1, cystic fibrosis transmembrane conductance regulator (CFTR); remark: listed apart in the source

T1 sequence (P13569 whole entry G551D): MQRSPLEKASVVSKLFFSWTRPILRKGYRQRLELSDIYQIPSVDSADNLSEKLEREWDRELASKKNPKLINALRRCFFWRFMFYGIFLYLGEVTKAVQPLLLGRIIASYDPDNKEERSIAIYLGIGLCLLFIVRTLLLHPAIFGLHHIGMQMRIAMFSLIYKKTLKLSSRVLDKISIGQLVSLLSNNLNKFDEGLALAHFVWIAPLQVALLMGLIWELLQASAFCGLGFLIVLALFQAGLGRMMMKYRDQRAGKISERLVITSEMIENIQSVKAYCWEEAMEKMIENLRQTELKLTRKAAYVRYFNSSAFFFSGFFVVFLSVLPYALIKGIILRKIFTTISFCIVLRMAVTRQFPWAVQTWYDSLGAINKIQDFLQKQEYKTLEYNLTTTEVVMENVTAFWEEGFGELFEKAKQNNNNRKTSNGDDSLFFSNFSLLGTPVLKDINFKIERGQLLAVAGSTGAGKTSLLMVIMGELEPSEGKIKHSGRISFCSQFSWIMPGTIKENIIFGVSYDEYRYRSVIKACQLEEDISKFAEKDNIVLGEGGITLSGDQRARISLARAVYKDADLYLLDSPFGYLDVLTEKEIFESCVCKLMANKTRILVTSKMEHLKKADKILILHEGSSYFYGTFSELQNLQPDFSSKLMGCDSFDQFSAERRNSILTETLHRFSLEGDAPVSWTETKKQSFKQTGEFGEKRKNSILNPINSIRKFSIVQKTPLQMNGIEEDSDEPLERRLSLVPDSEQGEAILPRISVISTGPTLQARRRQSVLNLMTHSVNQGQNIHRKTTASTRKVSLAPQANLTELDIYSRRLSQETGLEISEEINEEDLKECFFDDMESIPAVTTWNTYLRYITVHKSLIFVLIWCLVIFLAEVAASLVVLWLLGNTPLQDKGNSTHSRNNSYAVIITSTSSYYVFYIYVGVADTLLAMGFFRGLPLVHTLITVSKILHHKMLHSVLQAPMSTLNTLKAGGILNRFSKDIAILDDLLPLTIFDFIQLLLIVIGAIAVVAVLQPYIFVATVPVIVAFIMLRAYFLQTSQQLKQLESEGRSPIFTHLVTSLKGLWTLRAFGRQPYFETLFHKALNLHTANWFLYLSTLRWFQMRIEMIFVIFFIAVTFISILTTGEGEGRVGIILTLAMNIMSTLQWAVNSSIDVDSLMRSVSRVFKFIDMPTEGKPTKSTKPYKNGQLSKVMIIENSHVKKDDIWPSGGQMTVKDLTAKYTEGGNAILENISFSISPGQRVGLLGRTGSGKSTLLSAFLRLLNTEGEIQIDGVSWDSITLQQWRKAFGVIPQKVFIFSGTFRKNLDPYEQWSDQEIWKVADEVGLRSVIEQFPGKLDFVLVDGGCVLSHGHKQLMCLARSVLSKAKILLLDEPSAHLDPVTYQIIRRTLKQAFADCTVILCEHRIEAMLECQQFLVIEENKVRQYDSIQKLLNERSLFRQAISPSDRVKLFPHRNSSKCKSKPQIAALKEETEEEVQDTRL

COc1ccc(Br)c(-c2nnc3n2N=C(C(C)C)CS3)c1 [10a]
% G551D CFTR stimulation compared to VX-770 alone [1]: 232 % G551D CFTR stimulation compared to VX-770 alone

CC(C)(C)C1=Nn2c(nnc2-c2ccc(Cl)cc2Cl)SC1 [8d]
% gain above VX-770 alone [2]: ~ 400 % gain above VX-770 alone

CC(C)C1=Nn2c(nnc2-c2cc(Cl)ccc2Br)SC1 [9c]
CFTR current in FRT cells expressing G551D CFTR, 10 μM compound with VX-770 [3]: 2-bromo-5-chloro series with 9c and 9d showing the highest levels of activity
